Key:
[1] = biological target: T1, PR (Homo sapiens, UniProt P06401); test: Reporter assay of gene transcription activity, PR; type: cell-based
T1 sequence (P06401 1-933): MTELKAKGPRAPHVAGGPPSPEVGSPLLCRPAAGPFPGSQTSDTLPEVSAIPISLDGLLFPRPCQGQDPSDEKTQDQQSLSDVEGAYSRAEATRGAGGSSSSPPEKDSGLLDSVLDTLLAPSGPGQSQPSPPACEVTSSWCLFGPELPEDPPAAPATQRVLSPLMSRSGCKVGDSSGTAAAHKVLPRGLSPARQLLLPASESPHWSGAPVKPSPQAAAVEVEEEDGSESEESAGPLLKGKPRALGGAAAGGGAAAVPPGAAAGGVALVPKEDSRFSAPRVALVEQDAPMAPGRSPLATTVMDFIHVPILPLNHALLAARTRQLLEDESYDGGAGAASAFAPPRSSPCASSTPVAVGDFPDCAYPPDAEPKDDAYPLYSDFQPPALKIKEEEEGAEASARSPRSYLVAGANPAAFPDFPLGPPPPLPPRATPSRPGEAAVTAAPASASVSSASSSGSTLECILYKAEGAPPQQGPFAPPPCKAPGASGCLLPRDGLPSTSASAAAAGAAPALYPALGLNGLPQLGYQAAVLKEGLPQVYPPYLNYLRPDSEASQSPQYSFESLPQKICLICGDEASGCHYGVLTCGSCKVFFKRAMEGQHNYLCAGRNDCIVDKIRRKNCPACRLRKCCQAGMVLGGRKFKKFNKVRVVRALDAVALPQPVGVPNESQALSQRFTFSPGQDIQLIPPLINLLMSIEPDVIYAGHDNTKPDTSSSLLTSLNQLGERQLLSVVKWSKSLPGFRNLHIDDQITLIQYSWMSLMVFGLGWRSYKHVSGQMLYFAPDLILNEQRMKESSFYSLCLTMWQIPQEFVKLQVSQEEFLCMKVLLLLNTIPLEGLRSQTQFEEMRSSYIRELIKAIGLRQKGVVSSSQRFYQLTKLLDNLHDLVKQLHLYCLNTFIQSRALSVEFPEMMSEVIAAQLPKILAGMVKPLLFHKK

[2] = Single-dose pharmacokinetics, mouse; type: in vivo; settings: serum
[3] = Plasma protein binding, rapid equilibrium dialysis, mouse plasma; type: in vitro ADME; settings: undiluted plasma
[4] = Plasma protein binding, rapid equilibrium dialysis, human plasma; type: in vitro ADME
[5] = biological target: T2, ERα (Homo sapiens, UniProt P03372); test: Alkaline phosphatase; type: cell-based
T2 sequence (P03372 1-595): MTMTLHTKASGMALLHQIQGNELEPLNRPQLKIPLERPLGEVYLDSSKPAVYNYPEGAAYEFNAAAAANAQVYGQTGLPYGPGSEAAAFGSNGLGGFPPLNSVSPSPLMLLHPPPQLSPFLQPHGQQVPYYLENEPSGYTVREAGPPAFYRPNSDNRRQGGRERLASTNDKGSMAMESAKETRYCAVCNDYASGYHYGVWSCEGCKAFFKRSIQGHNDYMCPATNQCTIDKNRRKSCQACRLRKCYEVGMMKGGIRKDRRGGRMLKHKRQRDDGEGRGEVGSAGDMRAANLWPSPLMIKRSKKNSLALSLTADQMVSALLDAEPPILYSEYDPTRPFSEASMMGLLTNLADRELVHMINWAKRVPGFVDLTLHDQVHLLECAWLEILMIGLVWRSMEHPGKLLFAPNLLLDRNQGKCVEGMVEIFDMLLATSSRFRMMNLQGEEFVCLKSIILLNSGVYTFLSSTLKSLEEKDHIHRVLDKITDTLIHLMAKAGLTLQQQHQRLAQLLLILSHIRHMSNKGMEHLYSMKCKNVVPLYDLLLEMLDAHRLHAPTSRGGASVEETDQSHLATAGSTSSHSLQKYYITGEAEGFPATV

[6] = Plasma protein binding, rapid equilibrium dialysis, rat plasma; type: in vitro ADME
[7] = system: E2-induced uterine wet weight; test: Ovariectomized mouse uterine wet weight study; type: in vivo; settings: dose giving 50% inhibition of E2-induced uterine wet weight; oral, once daily, 3 days
[8] = biological target: P-gp (Homo sapiens, UniProt P08183); test: P-gp inhibition, membrane vesicles; type: in vitro ADME
Chain of P-gp (P08183 whole entry): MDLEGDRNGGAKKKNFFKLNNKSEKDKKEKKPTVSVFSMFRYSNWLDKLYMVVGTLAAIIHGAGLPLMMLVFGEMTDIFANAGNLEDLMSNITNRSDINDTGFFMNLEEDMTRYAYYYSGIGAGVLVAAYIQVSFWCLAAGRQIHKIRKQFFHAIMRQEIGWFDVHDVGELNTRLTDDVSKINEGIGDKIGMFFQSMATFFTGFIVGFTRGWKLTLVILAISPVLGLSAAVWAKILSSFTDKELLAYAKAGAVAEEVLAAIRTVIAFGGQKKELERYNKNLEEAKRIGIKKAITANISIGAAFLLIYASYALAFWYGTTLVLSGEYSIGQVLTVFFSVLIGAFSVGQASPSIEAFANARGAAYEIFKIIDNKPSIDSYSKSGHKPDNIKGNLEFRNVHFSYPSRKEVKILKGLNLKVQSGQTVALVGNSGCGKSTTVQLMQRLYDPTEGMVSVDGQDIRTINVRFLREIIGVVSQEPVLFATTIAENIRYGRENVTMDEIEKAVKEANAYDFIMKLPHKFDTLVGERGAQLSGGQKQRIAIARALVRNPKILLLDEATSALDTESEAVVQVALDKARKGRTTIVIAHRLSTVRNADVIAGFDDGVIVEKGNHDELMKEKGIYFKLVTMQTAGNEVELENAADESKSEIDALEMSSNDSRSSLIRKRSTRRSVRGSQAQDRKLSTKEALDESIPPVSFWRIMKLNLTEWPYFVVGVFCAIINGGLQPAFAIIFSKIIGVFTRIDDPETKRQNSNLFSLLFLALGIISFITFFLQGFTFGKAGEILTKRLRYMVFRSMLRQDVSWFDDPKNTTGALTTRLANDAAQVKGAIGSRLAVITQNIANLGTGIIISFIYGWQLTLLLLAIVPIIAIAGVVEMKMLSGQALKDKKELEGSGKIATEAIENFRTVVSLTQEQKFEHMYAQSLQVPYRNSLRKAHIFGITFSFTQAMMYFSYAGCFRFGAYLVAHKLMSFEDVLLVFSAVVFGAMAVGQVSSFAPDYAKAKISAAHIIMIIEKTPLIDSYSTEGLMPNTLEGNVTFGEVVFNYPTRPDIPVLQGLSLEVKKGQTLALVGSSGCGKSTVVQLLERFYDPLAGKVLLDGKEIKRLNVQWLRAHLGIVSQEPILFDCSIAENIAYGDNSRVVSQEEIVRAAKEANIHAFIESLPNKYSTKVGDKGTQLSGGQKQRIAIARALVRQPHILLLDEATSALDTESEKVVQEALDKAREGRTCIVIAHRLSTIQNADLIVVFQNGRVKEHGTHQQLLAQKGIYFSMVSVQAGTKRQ

[9] = Single-dose pharmacokinetics, rat; type: in vivo; settings: Sprague-Dawley, serum

With `CCCN1CC(Oc2ccc([C@@H]3c4[nH]c5ccccc5c4C[C@@H](C)N3CC(C)(C)F)cc2)C1` [compound 21, (1R,3R)-2-(2-Fluoro-2-methylpropyl)-3-methyl-1-(4-((1-propylazetidin-3-yl)oxy)phenyl)-2,3,4,9-tetrahydro-1H-pyrido[3,4-b]indole] the IC50 [1] was greater than 3.16 µM, the “agonist cross-reactivity on PR” value ([1]; in words) was “no agonist cross-reactivity” and the “PR pIC50, antag. mode” value ([1]; reporter assay, antag. mode) was less than 5.5. For the same compound, the AUC ([2]; iv, 0.5 mg/kg) was 161 ng·h/mL, the Cmax ([2]; iv, 0.5 mg/kg) was 29 ng/mL and the Vd ([2]; iv, 0.5 mg/kg) was 27 L/kg. It also gave a clearance ([2]; iv, 0.5 mg/kg) of 51.7 mL/min/kg, a half-life ([2]; iv, 0.5 mg/kg) of 7 h and an AUC ([2]; po, 5 mg/kg) of 1030 ng·h/mL. It also gave a Cmax ([2]; po, 5 mg/kg) of 91 ng/mL, a Tmax ([2]; po, 5 mg/kg) of 1 h and a bioavailability ([2]; po, 5 mg/kg) of 72%. The half-life ([2]; po, 5 mg/kg) was 10 h, the fraction unbound at 4 h, 1 µM [3] was 0.0006 and the plasma protein-bound ([4]; across all species, including humans) was greater than 99%. The “Plasma free drug percentage” value ([4]; hu plasma) was 0.08%, the IC50 [5] was 0.00316 µM and the “Plasma free drug percentage” value [6] was 0.24%. For the same compound, the “uterine wet weight ID50” value [7] was less than 1 µg/kg, the IC50 [8] was 4 µM and the AUC ([9]; iv, 0.5 mg/kg) was 454 ng·h/mL. The Cmax ([9]; iv, 0.5 mg/kg) was 313 ng/mL, the Vd ([9]; iv, 0.5 mg/kg) was 8 L/kg and the clearance ([9]; iv, 0.5 mg/kg) was 13.3 mL/min/kg. For the same compound, the half-life ([9]; iv, 0.5 mg/kg) was 7 h, the AUC ([9]; po, 5 mg/kg) was 2590 ng·h/mL and the Cmax ([9]; po, 5 mg/kg) was 138 ng/mL. For the same compound, the Tmax ([9]; po, 5 mg/kg) was 1.5 h, the bioavailability ([9]; po, 5 mg/kg) was 55% and the half-life ([9]; po, 5 mg/kg) was 16 h.

— paper PMC12163657 (ACS Omega, 2025)
